Measured values taken from PubChem BioAssay AID790 (SRMLSC, 2007).
pIC50: −log10 of the molar value. Activity calls are given as the source filed them. How the calls were made is not given here.

Columns and labels:
[1] = tested on: S. cerevisiae vps1Δ mutant growth inhibition; assay: vps1Δ single mutant yeast growth suppression – S. cerevisiae, background strain comparison, dose response (AID 790)
[2] = as above; details: S. cerevisiae vps1Δ mutant growth inhibition; for pIC50: measured here: background strain growth inhibition; for growth inhibition: at 25 µM (top of the series)

Structure (SMILES)	IC50 [1]	pIC50 [2]	pIC50 [1]	growth inhibition [2]
CCCn1c(SCc2cc(=O)oc3ccc4ccccc4c23)n[nH]c1=O	> 10 µM (inactive)	< 5.00	–	–
CCOC(=O)c1c(CN2CCCCC2C)oc2ccc(OC)cc12 (centres undefined)	> 10 µM (inactive)	< 5.00	–	–
O=C(Nc1nnc(-c2ccccc2)o1)c1ccc(Cl)cc1	–	6.19	6.38	–
COc1ccccc1N1CCN(C2CCN(C(=O)c3cc(OC)c(OC)c(OC)c3)CC2)CC1	> 10 µM (inactive)	< 5.00	–	–
O=C(OCn1ncc(Cl)c(Cl)c1=O)c1ccc(C(F)(F)F)cc1	> 10 µM (inactive)	< 5.00	–	–
COc1ccc(C2CC(=O)C3=C(C2)NC(C)=C(C(=O)Nc2ccccc2C)C3c2coc3ccc(C)cc3c2=O)cc1OC (centres undefined)	> 10 µM (inactive)	< 5.00	–	–
Cc1cc2ncn(CC(O)COc3cccc(C(=O)O)c3)c2cc1C (centres undefined)	> 10 µM (inactive)	< 5.00	–	–
CCOC(=O)C(NC(C)=O)(Nc1ccc(S(=O)(=O)Nc2onc(C)c2C)cc1)C(F)(F)F (centres undefined)	> 10 µM (inactive)	< 5.00	–	–
Cc1[nH]nc(N=CC2=C(O)CC(C)(C)CC2=O)c1-c1ccc(Cl)cc1	> 10 µM (inactive)	–	–	–
Cc1ccn2cc(-c3nonc3C)cc2c1	> 10 µM (inactive)	< 5.00	–	–
Cc1sc(NC(=O)c2ccco2)c(C(c2cccnc2)N2CCC(C)CC2)c1C (centres undefined)	> 10 µM (inactive)	5.24	–	–
O=C(CN1CCN(c2ccccn2)CC1)Nc1ccc(Oc2ccccc2)cc1	> 10 µM (inactive)	–	–	–
CC(=O)Nc1ccccc1NS(=O)(=O)c1ccc(Cl)cc1	> 10 µM (inactive)	< 5.00	–	–
Cc1cc(C(C)(C)C)ccc1OCCN1CCCC1	> 10 µM (inactive)	< 5.00	–	–
O=C(Nc1nnc(-c2cccs2)o1)c1cccc(C(F)(F)F)c1	1.67 µM (inactive)	–	–	–
O=C(NCC(c1cccnc1)N1CCN(c2ccccc2)CC1)c1ccc2c(c1)OCO2 (centres undefined)	> 10 µM (inactive)	< 5.00	–	–
O=C1OCC2=C1C(c1ccc(F)cc1)Sc1ccccc1N2 (centres undefined)	–	< 5.00	4.84	–
O=C(NC(C(=O)c1ccccc1)N1CCCCC1)c1ccccc1 (centres undefined)	> 10 µM (inactive)	< 5.00	–	–
CCC(C)c1ccc(OCCCCN2CCOCC2)cc1 (centres undefined)	> 10 µM (inactive)	< 5.00	–	–
CC12CCC(c3c(C(=O)Nc4nccs4)nn(-c4ccccc4)c31)C2(C)C (centres undefined)	> 10 µM (inactive)	–	–	–
CCC(OC(=O)C(NC(=O)c1ccccc1)c1ccccc1)C(=O)Nc1cc(C)on1 (centres undefined)	> 10 µM (inactive)	< 5.00	–	–
COc1ccc(/C=C2\SC(=S)N(NC(=O)c3csc4c3CCCC4)C2=O)cc1	> 10 µM (inactive)	< 5.00	–	–
COc1ccc(NC(=S)NC(NC(=O)c2ccc(Cl)cc2Cl)C(Cl)(Cl)Cl)c([N+](=O)[O-])c1 (centres undefined)	> 10 µM (inactive)	< 5.00	–	–

Structure (SMILES)	IC50 [1]	pIC50 [2]	pIC50 [1]	growth inhibition [2]
COCCNC(=O)C(c1ccc(F)cc1)N(CC1CCCO1)C(=O)CCC(=O)Nc1ccccn1 (centres undefined)	> 10 µM (inactive)	< 5.00	–	–
CC1CN(CC(O)COc2ccc(C(C)C)cc2)CC(C)O1 (centres undefined)	> 10 µM (inactive)	< 5.00	–	–
O=C(OCn1ncc(Br)c(Br)c1=O)c1ccccc1Cl	–	–	5.17	–
Cc1ccc(C(=O)OCn2ncc(Cl)c(Cl)c2=O)cc1	–	5.34	5.39	–
CCC(=O)N(CCO)Cc1cc2ccc(C)c(C)c2[nH]c1=O	> 10 µM (inactive)	< 5.00	–	–
COc1ccc2c(c1)C(C)=CC(C)(C)N2C(=O)CSc1nnc(-c2ccc(C)cc2)o1	> 10 µM (inactive)	< 5.00	–	–
CCCC(=O)Nc1ccc(Cl)c(NC(=O)c2cccnc2Cl)c1	> 10 µM (inactive)	< 5.00	–	–
Cc1cccc(-n2c(N)c(C(=O)NCCN3CCOCC3)c3nc4ccccc4nc32)c1	> 10 µM (inactive)	< 5.00	–	–
Cn1c(=O)c2nc(NCc3ccccc3)cnc2n(C)c1=O	> 10 µM (inactive)	< 5.00	–	–
O=C(NCC(=O)N(c1cccnc1)C(C(=O)NCc1ccco1)c1ccccc1)c1ccco1 (centres undefined)	> 10 µM (inactive)	< 5.00	–	–
O=C(NCc1ccccc1)NS(=O)(=O)c1ccccc1Cl	> 10 µM (inactive)	< 5.00	–	–
CCOC(=O)c1c(NC(=O)CN2CCCCC2)sc2c1CCC(C=O)=C2Cl	> 10 µM (inactive)	< 5.00	–	–
CC(C)Cc1[nH]c(=O)c(C#N)c2c1CCC2	> 10 µM (inactive)	< 5.00	–	–
Fc1ccc(-c2noc(C3CCN(Cc4cccnc4)CC3)n2)cc1	> 10 µM (inactive)	< 5.00	–	–
Cc1c(C)c2cc(Cl)c(O)c(CN3CCN(C)CC3)c2oc1=O	> 10 µM (inactive)	< 5.00	–	–
Cc1cc(Cl)cc(C)c1OCCCCN1CCOCC1	> 10 µM (inactive)	< 5.00	–	–
COc1ccc(C(=O)Nc2ccc(Cl)cc2C(=O)N2CCCC(C)C2)cc1 (centres undefined)	> 10 µM (inactive)	< 5.00	–	–
C=CCc1ccccc1OCC(O)CN1CCN(Cc2ccc3c(c2)OCO3)CC1 (centres undefined)	> 10 µM (inactive)	< 5.00	–	–
COc1cccc(NC(=O)c2ccc(CN3CCN(c4ccccc4)CC3)cc2)c1	> 10 µM (inactive)	< 5.00	–	–
N=c1nc(N)nc2n1NC(c1ccc(F)cc1)=CS2	> 10 µM (inactive)	< 5.00	–	–
Cc1ccc(-n2cc3c(-c4cccc(Br)c4)nnc(C)c3n2)cc1	–	4.87	5.83	–
CCC(=O)c1ccc(N2CCN(C(=O)c3ccc(Br)cc3)CC2)c(F)c1	> 10 µM (inactive)	< 5.00	–	–
CCOCCCNC(=O)c1cc2sc(Cl)cc2n1CC	> 10 µM (inactive)	< 5.00	–	–

Structure (SMILES)	IC50 [1]	pIC50 [2]	pIC50 [1]	growth inhibition [2]
Cc1ccc(SC(C)C(=O)Nc2ncn[nH]2)cc1 (centres undefined)	> 10 µM (inactive)	< 5.00	–	–
CC(=O)c1ccc(N2CCN(C(=O)c3ccc(Br)cc3)CC2)c(F)c1	–	5.18	5.82	–
CCOC(=O)C(C)Oc1ccc2c(C)cc(=O)oc2c1C(C)=O (centres undefined)	> 10 µM (inactive)	< 5.00	–	–
CSc1ncccc1C(=O)OCC(=O)N1CCOCC1	> 10 µM (inactive)	< 5.00	–	–
CCCOc1ccccc1N/C(=N/c1nc(C)cc(C)n1)NC(=O)COc1ccc(OC)cc1	> 10 µM (inactive)	< 5.00	–	–
COc1cccc(-c2cc(C(=O)N3CCN(C(c4ccccc4)c4ccccc4)CC3)no2)c1	> 10 µM (inactive)	< 5.00	–	–
COCCCNc1ccnc2c(Cl)cccc12	> 10 µM (inactive)	< 5.00	–	–
CCN(CC)c1ccc(-c2nc3cnccc3n2C)cc1	> 10 µM (inactive)	< 5.00	–	–
O=Cc1cc2ccccc2nc1SCc1ccc(Cl)cc1	> 10 µM (inactive)	< 5.00	–	–
Cc1ccc(C(=O)Nc2ccc(Cc3ccncc3)cc2)cc1[N+](=O)[O-]	–	–	4.63	–
Nc1ccc(Oc2ccc3nc(-c4ccccc4)c(-c4ccccc4)nc3c2)cc1	2.91 µM (inactive)	5.92	–	–
CC1CCCN(CCOCCOc2ccc(Cl)cc2Br)C1 (centres undefined)	> 10 µM (inactive)	< 5.00	–	–
CCCn1nc([N+](=O)[O-])c(C(C#N)c2nc3ccccc3s2)c(Cl)c1=O (centres undefined)	–	5.67	5.82	–
O=C(NCC1COc2ccccc2O1)c1ccc(Cl)cc1 (centres undefined)	–	–	5.48	–
O=S1(=O)C=C(Sc2nnc(-c3ccccc3)o2)c2ccccc21	–	–	4.62	–
Cc1nc(NC(=O)c2ccccc2)sc1-c1csc(Nc2ccc(F)cc2)n1	–	< 5.00	–	–
CCOc1nc(SCCOc2ccccc2)nc(N(C)C)n1	> 10 µM (inactive)	–	–	–
N#Cc1ccccc1Cn1cc(C(=O)c2cccs2)c2ccccc21	> 10 µM (inactive)	–	–	–
C=C(C)C1CC=C(CN2CC(C)OC(C)C2)CC1 (centres undefined)	–	< 5.00	–	–
COc1ccc(OCCSc2nnc3sc4ccccc4n23)cc1	> 10 µM (inactive)	–	–	–
N=c1c2c(-c3ccccc3)c(-c3ccccc3)n(Cc3ccco3)c2ncn1Cc1ccccc1	> 10 µM (inactive)	–	–	–
O=C(OCn1ncc(Br)c(Br)c1=O)c1c(F)cccc1F	–	–	4.79	–
O=C(Nc1nnc(-c2ccc3c(c2)CCCC3)o1)c1ccccc1	–	–	6.10	–

Structure (SMILES)	IC50 [1]	pIC50 [2]	pIC50 [1]	growth inhibition [2]
O=C1C=C(c2ccccc2)C(=O)N1Nc1ccccc1	–	–	4.65	–
CCOc1ccc(NC(=O)N(C2CCCCC2)C(C)c2cccnc2)cc1 (centres undefined)	–	–	4.81	–
CC(Sc1ccsc1[N+](=O)[O-])C(=O)NCCc1ccc(Cl)cc1 (centres undefined)	> 10 µM (inactive)	–	–	–
CC1CCC(C(C)C)C(OCC(O)CN2CCN(Cc3ccccc3)CC2)C1 (centres undefined)	> 10 µM (inactive)	–	–	–
O=C(NCC(c1cccnc1)N1CCN(c2ccc(F)cc2)CC1)OCc1ccccc1 (centres undefined)	–	–	4.65	–
CC(c1nnc(SCn2nnc3ccccc3c2=O)n1-c1ccc(Cl)cc1)N(C)C (centres undefined)	–	–	5.26	–
CCCCC(c1nnnn1Cc1ccco1)N1CCN(c2nc3ccccc3s2)CC1 (centres undefined)	–	5.41	–	–
O=[N+]([O-])c1cc(Cl)cc(/C=N\Nc2ccccn2)c1O	–	–	5.47	–
Cc1cccc(N2CCN(CC(=O)Nc3nccs3)CC2)c1C	–	< 5.00	–	31.3% (inactive)
CC1CCN(S(=O)(=O)c2ccc(NC(=O)CCN3C(=O)c4ccccc4C3=O)cc2)CC1	> 10 µM (inactive)	–	–	–
CCCCCCOc1ccc(CN2CCN(CCO)CC2)cc1	> 10 µM (inactive)	–	–	–
OC(COCc1ccc(Cl)cc1)CN1CC=C(c2ccccc2)CC1 (centres undefined)	–	4.68	–	–
Cc1nn(Cc2cccc(C(=O)NC(C)c3ccc(C(C)(C)C)cc3)c2)c(C)c1[N+](=O)[O-] (centres undefined)	–	< 5.00	–	23.6% (inactive)
OC(c1ccc(Cl)cc1Cl)C(Cc1cccnc1)n1cncn1 (centres undefined)	–	< 5.00	–	–
CCOC(=O)c1c(-n2c(C)cc(C=C3C(=O)NC(=S)NC3=O)c2C)sc2c1CCCC2	–	4.94	–	–
O=C(C1CCCN(S(=O)(=O)c2ccc(Cl)cc2)C1)N(Cc1cccs1)C1CC1 (centres undefined)	–	–	5.00	–
CC(C)c1ccc(C(=O)CSc2n[nH]c(-c3ccncc3)n2)cc1	> 10 µM (inactive)	–	–	–
O=S1(=O)C=C(Sc2nc3ccccc3s2)c2ccccc21	> 10 µM (inactive)	–	–	–
N[C@@H](Cc1c[nH]c2ccccc12)c1nnc(SCc2ccc(Cl)cc2)o1	–	4.69	–	–
O=S(=O)(Cc1ccccc1Cl)N1CCN(Cc2ccc3c(c2)OCO3)CC1	> 10 µM (inactive)	–	–	–
